Tests used:
Format in all cases: biochemical
[1] = target: T1, dipeptidyl peptidase 1 (DPP1, cathepsin C) (Rattus norvegicus, UniProt P80067); assay: fluorogenic H-Gly-Arg-AMC cleavage assay with recombinant enzyme
T1 construct: gene Ctsc; recombinant rat DPP1, proteolytically processed into mature form with cathepsin L

[2] = target: T2, dipeptidyl peptidase 1 (DPP1, cathepsin C) (Mus musculus, UniProt P97821); assay: as above
T2 construct: gene Ctsc; recombinant mouse DPP1

[3] = target: T3, dipeptidyl peptidase 1 (DPP1, cathepsin C) (Canis lupus, UniProt O97578); assay: fluorogenic H-Gly-Arg-AMC cleavage assay in crude white blood cell lysate; conditions: read-out: DPP1 / Dog
T3 construct: gene CTSC; native DPP1 in dog white blood cell lysate
T3 sequence (O97578 1-109): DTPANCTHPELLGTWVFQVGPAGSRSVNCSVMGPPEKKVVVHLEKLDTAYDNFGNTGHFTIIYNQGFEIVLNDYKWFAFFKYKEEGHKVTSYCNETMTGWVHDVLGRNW
T3 sequence (O97578 200-435): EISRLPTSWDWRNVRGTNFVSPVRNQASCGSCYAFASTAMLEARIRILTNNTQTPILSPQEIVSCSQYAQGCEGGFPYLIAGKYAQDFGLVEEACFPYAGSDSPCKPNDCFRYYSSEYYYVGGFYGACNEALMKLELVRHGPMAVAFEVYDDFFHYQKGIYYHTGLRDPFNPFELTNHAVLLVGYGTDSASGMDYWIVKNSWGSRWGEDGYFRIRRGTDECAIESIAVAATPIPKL

T2 sequence (P97821 25-134): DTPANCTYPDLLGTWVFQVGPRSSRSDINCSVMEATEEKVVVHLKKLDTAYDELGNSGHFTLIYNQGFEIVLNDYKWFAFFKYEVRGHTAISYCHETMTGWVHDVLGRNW
T2 sequence (P97821 231-462): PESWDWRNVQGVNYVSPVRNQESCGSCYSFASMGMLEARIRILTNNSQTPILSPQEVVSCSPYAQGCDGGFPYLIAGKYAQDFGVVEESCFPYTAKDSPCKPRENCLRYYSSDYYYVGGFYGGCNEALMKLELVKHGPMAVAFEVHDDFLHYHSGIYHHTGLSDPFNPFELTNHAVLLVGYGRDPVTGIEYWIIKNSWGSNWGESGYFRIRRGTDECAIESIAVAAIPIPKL
T1 sequence (P80067 25-134): as the sequence (P97821 25-134) above, with S23H, S24P, D27H, A35P, V42I, L54V, H59Y, R86K, H88S, T89R counted along it
T1 sequence (P80067 230-393): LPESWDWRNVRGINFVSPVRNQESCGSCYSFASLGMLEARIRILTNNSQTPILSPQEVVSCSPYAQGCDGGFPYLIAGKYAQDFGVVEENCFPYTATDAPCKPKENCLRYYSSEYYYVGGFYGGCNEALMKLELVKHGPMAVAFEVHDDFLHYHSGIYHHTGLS
T1 sequence (P80067 394-462): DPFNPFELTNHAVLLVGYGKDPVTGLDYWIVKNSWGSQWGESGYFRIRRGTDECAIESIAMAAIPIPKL

Cn1c(=O)oc2ccc(-c3ccc(C[C@@H](C#N)NC(=O)[C@@H]4CNCCCO4)cc3)cc21 [brensocatib]
IC50 [1]: 51.1 nM
IC50 [2]: 24.1 nM
IC50 [3]: 38.1 nM
